The source of these data is ChEMBL document CHEMBL1142161, “Hepatitis C virus (HCV) NS5B nonnucleoside inhibitors specifically block single-stranded viral RNA synthesis catalyzed by HCV replication complexes in vitro” (Antimicrob Agents Chemother, 2007).

SMILES strings stand for the structures. pEC50: −log10 of the molar value. Activity calls are given as the source filed them. The rule behind the calls is not given here. Bounds are passed on as bounds.

One assay is filed under the species Homo sapiens. In words: (§1) Inhibition of replication in Huh-9-13 cells containing Wild type HCV replicons after 72 hrs. The class given is functional, cell-based. A general note: In antiviral work, replicon cells carry a viral genome segment that copies itself.
The test system of another assay is Hepacivirus hominis. In words: Inhibition of HCV ssRNA synthesis by crude replicase complexes prepared from Huh-9-13 cells. It is filed as functional.
Assay [1] in a line: as §1. It is filed as functional, cell-based. The conditions noted are these: Homo sapiens.
A short description of assay [2]: Inhibition of replication in M414T cells containing mutant HCV replicons after 72 hrs. The class given is functional, cell-based, Homo sapiens.

Regarding `O=C(N[C@@H](Cc1c[nH]c2ccccc12)C(=O)O)c1ccc2c(c1)nc(-c1ccoc1)n2C1CCCCC1`, the outcome in the assay filed under Homo sapiens was inactive. For the same compound, in the assay with Hepacivirus hominis, the Activity result is “Dose-dependent effect”.

On to `CC(C)CCn1c(=O)c(C2=NS(=O)(=O)c3ccccc3N2)c(O)c2ccccc21`, for which the pEC50 (usually −log10 of the EC50, conventionally taken in molar units) in assay [1] is 6.05; in assay [2], under 4.50. In the assay with Hepacivirus hominis, the Activity entry is “Dose-dependent effect”.
